# Source: ChEMBL document CHEMBL3885861, “Open TG-GATES”
# Species: Rattus norvegicus
# Test: Open TG-GATES - Regimen: Daily Repeat
# Assay type: toxicity, organism-based, Sprague-Dawley
# Parameters: regimen Daily Repeat, gender Male, age 6 weeks
# Conditions: in vivo, po, route gavage; for APTT / Bas / Eos / Fbg / Hb / Ht / Lym / MCHC / MCV / Mono / Neu / PT / Plat / RBC / Ret / WBC: tissue Blood; for KIDNEY_L / KIDNEY_R / KIDNEY_TOTAL: tissue Kidney; for LIVER: tissue Liver; for ALP / ALT / AST / CRE / DBIL / GLC / K / LDH / Na / PL / RALB / TBIL / TC / TG / TP / gamma-GTP / IP / Ca: tissue Plasma
# [1] = 200 mg/kg, 72 h, dose level Middle, time 3 day
# [2] = 200 mg/kg, […], dose level Middle, time 7 day
# [3] = 200 mg/kg, […], dose level Middle, time 14 day
# [4] = 200 mg/kg, […], dose level Middle, time 28 day
# [5] = 600 mg/kg, 72 h, dose level High, time 3 day
# [6] = 600 mg/kg, […], dose level High, time 7 day
# [7] = 600 mg/kg, […], dose level High, time 14 day
# [8] = 600 mg/kg, […], dose level High, time 28 day
smiles,measurement,setting,value
O=C1NC(=O)C(c2ccccc2)(c2ccccc2)N1 [PHENYTOIN],TERMINAL_BW,[1],220.5 g
same,APTT,[1],21 s
same,Bas,[1],0%
same,Eos,[1],0.8%
same,Fbg,[1],304.4 mg/dL
same,Hb,[1],13 g/dL
same,Ht,[1],39.4%
same,Lym,[1],77.4%
same,MCHC,[1],33.1%
same,MCV,[1],63.8 fL
same,Mono,[1],2.4%
same,Neu,[1],18.4%
same,PT,[1],15.5 s
same,Plat,[1],117 x10_4/uL
same,RBC,[1],618.4 x10_4/ul
same,Ret,[1],7.3%
same,WBC,[1],98.2 x10_2/uL
same,KIDNEY_L,[1],0.9 g
same,KIDNEY_R,[1],0.9 g
same,KIDNEY_TOTAL,[1],1.9 g
same,LIVER,[1],10.5 g
same,ALP,[1],1568.8 IU/L
same,ALT,[1],45.8 IU/L
same,AST,[1],75.4 IU/L
same,CRE,[1],0.1 mg/dL
same,DBIL,[1],0.008 mg/dL
same,GLC,[1],185.8 mg/dL
same,K,[1],4 meq/L
same,LDH,[1],188 IU/L
same,Na,[1],143.4 meq/L
same,PL,[1],147 mg/dL
same,RALB,[1],2.9 g/dL
same,TBIL,[1],0.012 mg/dL
same,TC,[1],84.4 mg/dL
same,TG,[1],85.2 mg/dL
same,TP,[1],5.8 g/dL
same,gamma-GTP,[1],1 IU/L
same,TERMINAL_BW,[2],247.9 g
same,TERMINAL_BW,[3],301 g
same,TERMINAL_BW,[4],393.6 g
same,APTT,[2],22.3 s
same,Bas,[2],0%
same,Eos,[2],0.6%
same,Fbg,[2],324 mg/dL
same,Hb,[2],13.1 g/dL
same,Ht,[2],38.8%
same,Lym,[2],79.8%
same,MCHC,[2],33.7%
same,MCV,[2],62.5 fL
same,Mono,[2],2.4%
same,Neu,[2],16.2%
same,PT,[2],15.6 s
same,Plat,[2],123.7 x10_4/uL
same,RBC,[2],621.2 x10_4/ul
same,Ret,[2],6%
same,WBC,[2],109.9 x10_2/uL
same,APTT,[3],22.3 s
same,Bas,[3],0%
same,Eos,[3],0.8%
same,Fbg,[3],285.6 mg/dL
same,Hb,[3],14.1 g/dL
same,Ht,[3],41.4%
same,Lym,[3],82.6%
same,MCHC,[3],34.1%
same,MCV,[3],62 fL
same,Mono,[3],2.2%
same,Neu,[3],13.6%
same,PT,[3],16.3 s
same,Plat,[3],121.5 x10_4/uL
same,RBC,[3],669.8 x10_4/ul
same,Ret,[3],4.7%
same,WBC,[3],112.2 x10_2/uL
same,APTT,[4],23.4 s
same,Bas,[4],0%
same,Eos,[4],1.2%
same,Fbg,[4],332.6 mg/dL
same,Hb,[4],15.4 g/dL
same,Ht,[4],43.4%
same,Lym,[4],84%
same,MCHC,[4],35.5%
same,MCV,[4],58.1 fL
same,Mono,[4],1.4%
same,Neu,[4],12.6%
same,PT,[4],15.8 s
same,Plat,[4],122.2 x10_4/uL
same,RBC,[4],747 x10_4/ul
same,Ret,[4],2.9%
same,WBC,[4],117 x10_2/uL
same,KIDNEY_L,[2],1.1 g
same,KIDNEY_R,[2],1 g
same,KIDNEY_TOTAL,[2],2.1 g
same,KIDNEY_L,[3],1.2 g
same,KIDNEY_R,[3],1.2 g
same,KIDNEY_TOTAL,[3],2.4 g
same,KIDNEY_L,[4],1.4 g
same,KIDNEY_R,[4],1.5 g
same,KIDNEY_TOTAL,[4],2.9 g
same,LIVER,[2],12.4 g
same,LIVER,[3],13.9 g
same,LIVER,[4],17.5 g
same,ALP,[2],1383 IU/L
same,ALT,[2],39.4 IU/L
same,AST,[2],61 IU/L
same,CRE,[2],0.2 mg/dL
same,DBIL,[2],0.004 mg/dL
same,GLC,[2],187.6 mg/dL
same,IP,[2],6.9 mg/dL
same,K,[2],4.1 meq/L
same,LDH,[2],159.2 IU/L
same,Na,[2],141.8 meq/L
same,PL,[2],146.4 mg/dL
same,RALB,[2],3.1 g/dL
same,TBIL,[2],0.024 mg/dL
same,TC,[2],74.8 mg/dL
same,TG,[2],120.4 mg/dL
same,TP,[2],5.8 g/dL
same,gamma-GTP,[2],1 IU/L
same,ALP,[3],1572.8 IU/L
same,ALT,[3],41.8 IU/L
same,AST,[3],65.8 IU/L
same,CRE,[3],0.2 mg/dL
same,DBIL,[3],0 mg/dL
same,GLC,[3],174.2 mg/dL
same,IP,[3],7 mg/dL
same,K,[3],4.2 meq/L
same,LDH,[3],130 IU/L
same,Na,[3],142.8 meq/L
same,PL,[3],147 mg/dL
same,RALB,[3],3.1 g/dL
same,TBIL,[3],0.002 mg/dL
same,TC,[3],70.6 mg/dL
same,TG,[3],163.4 mg/dL
same,TP,[3],5.6 g/dL
same,gamma-GTP,[3],1.6 IU/L
same,ALP,[4],1131.8 IU/L
same,ALT,[4],44 IU/L
same,AST,[4],74.6 IU/L
same,CRE,[4],0.2 mg/dL
same,DBIL,[4],0.002 mg/dL
same,GLC,[4],186.4 mg/dL
same,IP,[4],6.3 mg/dL
same,K,[4],3.9 meq/L
same,LDH,[4],146.2 IU/L
same,Na,[4],143.6 meq/L
same,PL,[4],160 mg/dL
same,RALB,[4],3.2 g/dL
same,TBIL,[4],0.028 mg/dL
same,TC,[4],81 mg/dL
same,TG,[4],138.4 mg/dL
same,TP,[4],6.3 g/dL
same,gamma-GTP,[4],1.6 IU/L
same,TERMINAL_BW,[5],211.2 g
same,APTT,[5],21.7 s
same,Bas,[5],0%
same,Eos,[5],1%
same,Fbg,[5],282.8 mg/dL
same,Hb,[5],13.4 g/dL
same,Ht,[5],39.8%
same,Lym,[5],77.6%
same,MCHC,[5],33.8%
same,MCV,[5],64.7 fL
same,Mono,[5],2.4%
same,PT,[5],15.7 s
same,Plat,[5],124.6 x10_4/uL
same,RBC,[5],617 x10_4/ul
same,Ret,[5],6.3%
same,WBC,[5],85 x10_2/uL
same,KIDNEY_L,[5],0.9 g
same,KIDNEY_R,[5],0.9 g
same,KIDNEY_TOTAL,[5],1.9 g
same,LIVER,[5],10.5 g
same,ALP,[5],1803.2 IU/L
same,ALT,[5],45 IU/L
same,AST,[5],73.6 IU/L
same,CRE,[5],0.1 mg/dL
same,DBIL,[5],0.002 mg/dL
same,GLC,[5],158 mg/dL
same,IP,[5],7.3 mg/dL
same,K,[5],4.4 meq/L
same,LDH,[5],193.6 IU/L
same,Na,[5],143.2 meq/L
same,PL,[5],127.4 mg/dL
same,RALB,[5],3 g/dL
same,TBIL,[5],0.01 mg/dL
same,TC,[5],67 mg/dL
same,TG,[5],74.6 mg/dL
same,TP,[5],5.7 g/dL
same,gamma-GTP,[5],1.2 IU/L
same,TERMINAL_BW,[6],243.1 g
same,TERMINAL_BW,[7],290.1 g
same,TERMINAL_BW,[8],332.2 g
same,APTT,[6],23.9 s
same,Bas,[6],0%
same,Eos,[6],0.6%
same,Fbg,[6],311.5 mg/dL
same,Hb,[6],13.8 g/dL
same,Ht,[6],39.7%
same,Lym,[6],80.4%
same,MCHC,[6],34.7%
same,MCV,[6],62.1 fL
same,Mono,[6],2.2%
same,Neu,[6],15.6%
same,PT,[6],15.6 s
same,Plat,[6],125.6 x10_4/uL
same,RBC,[6],638.6 x10_4/ul
same,Ret,[6],4.6%
same,WBC,[6],101.9 x10_2/uL
same,APTT,[7],25.5 s
same,Bas,[7],0%
same,Eos,[7],0.8%
same,Fbg,[7],281.6 mg/dL
same,Hb,[7],14.4 g/dL
same,Ht,[7],42.7%
same,Lym,[7],81.6%
same,MCHC,[7],33.6%
same,MCV,[7],60.3 fL
same,Mono,[7],1.8%
same,Neu,[7],14.6%
same,PT,[7],16.3 s
same,Plat,[7],121.7 x10_4/uL
same,RBC,[7],709.6 x10_4/ul
same,Ret,[7],4.4%
same,WBC,[7],118.8 x10_2/uL
same,APTT,[8],25.5 s
same,Bas,[8],0%
same,Eos,[8],1%
same,Fbg,[8],299 mg/dL
same,Hb,[8],15.7 g/dL
same,Ht,[8],44.4%
same,Lym,[8],85.2%
same,MCHC,[8],35.4%
same,MCV,[8],56.8 fL
same,Mono,[8],1.4%
same,Neu,[8],11.6%
same,PT,[8],15.9 s
same,Plat,[8],105 x10_4/uL
same,RBC,[8],781.8 x10_4/ul
same,Ret,[8],2.5%
same,WBC,[8],89.2 x10_2/uL
same,KIDNEY_L,[6],1.1 g
same,KIDNEY_R,[6],1.1 g
same,KIDNEY_TOTAL,[6],2.2 g
same,KIDNEY_L,[7],1.2 g
same,KIDNEY_R,[7],1.2 g
same,KIDNEY_TOTAL,[7],2.3 g
same,KIDNEY_L,[8],1.3 g
same,KIDNEY_R,[8],1.3 g
same,KIDNEY_TOTAL,[8],2.6 g
same,LIVER,[6],13.6 g
same,LIVER,[7],13.6 g
same,LIVER,[8],13.8 g
same,ALP,[6],1547.2 IU/L
same,ALT,[6],39.4 IU/L
same,AST,[6],59.6 IU/L
same,CRE,[6],0.2 mg/dL
same,DBIL,[6],0 mg/dL
same,GLC,[6],167 mg/dL
same,IP,[6],6.8 mg/dL
same,K,[6],4.2 meq/L
same,LDH,[6],173 IU/L
same,Na,[6],142.2 meq/L
same,PL,[6],145.2 mg/dL
same,RALB,[6],3 g/dL
same,TBIL,[6],0.024 mg/dL
same,TC,[6],77.8 mg/dL
same,TG,[6],78.6 mg/dL
same,TP,[6],5.8 g/dL
same,gamma-GTP,[6],1 IU/L
same,ALP,[7],1535.6 IU/L
same,ALT,[7],43.6 IU/L
same,AST,[7],65.6 IU/L
same,CRE,[7],0.2 mg/dL
same,Ca,[7],10.2 mg/dL
same,DBIL,[7],0 mg/dL
same,GLC,[7],186 mg/dL
same,IP,[7],6.4 mg/dL
same,K,[7],4.1 meq/L
same,LDH,[7],157.2 IU/L
same,Na,[7],143 meq/L
same,PL,[7],137.8 mg/dL
same,RALB,[7],3 g/dL
same,TBIL,[7],0.004 mg/dL
same,TC,[7],69.4 mg/dL
same,TG,[7],99.4 mg/dL
same,TP,[7],5.7 g/dL
same,gamma-GTP,[7],1.6 IU/L
same,ALP,[8],1175.6 IU/L
same,ALT,[8],40.4 IU/L
same,AST,[8],62 IU/L
same,CRE,[8],0.2 mg/dL
same,Ca,[8],10 mg/dL
same,DBIL,[8],0 mg/dL
same,GLC,[8],183.2 mg/dL
same,IP,[8],5.4 mg/dL
same,K,[8],4 meq/L
same,LDH,[8],135.8 IU/L
same,Na,[8],143.4 meq/L
same,PL,[8],135.4 mg/dL
same,RALB,[8],3.1 g/dL
same,TBIL,[8],0.024 mg/dL
same,TC,[8],67.2 mg/dL
same,TG,[8],95.4 mg/dL
same,TP,[8],6.1 g/dL
same,gamma-GTP,[8],1.4 IU/L
